The record followed here is patent US11926574B2, “Dimethoxyphenylalkylamine activators of serotonin receptors” (Entheogenix Biosciences, Inc., priority 2021, dated 2024).

This test has as its target 5HT2A (Homo sapiens, UniProt P28223). The experiment in a line: 5HT2A Activity (% Max Activation @ 0.3 uM). The class given is cell-based.

Chain of 5HT2A (P28223 whole entry): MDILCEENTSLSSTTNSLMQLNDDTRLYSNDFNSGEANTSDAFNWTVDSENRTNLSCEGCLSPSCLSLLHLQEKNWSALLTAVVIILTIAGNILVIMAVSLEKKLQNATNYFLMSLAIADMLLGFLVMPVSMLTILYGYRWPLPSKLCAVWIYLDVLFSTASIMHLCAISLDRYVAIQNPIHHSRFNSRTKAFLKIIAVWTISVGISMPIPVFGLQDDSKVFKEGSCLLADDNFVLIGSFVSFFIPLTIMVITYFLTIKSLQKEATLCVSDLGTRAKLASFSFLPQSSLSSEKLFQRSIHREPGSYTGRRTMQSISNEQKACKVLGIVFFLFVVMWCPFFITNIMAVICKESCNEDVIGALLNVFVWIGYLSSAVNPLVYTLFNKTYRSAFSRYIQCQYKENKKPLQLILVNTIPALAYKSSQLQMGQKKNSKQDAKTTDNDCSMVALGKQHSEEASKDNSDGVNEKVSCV

For the molecule `COc1ccc(OC)c(CCNCc2ccc(C)cc2Cl)c1` [Compound 2-3, N-(2-chloro-4-methylbenzyl)-2-(2,5-dimethoxyphenyl)ethan-1-amine], the Emax (in general, the maximal effect, on the per cent scale that the assay sets) at 0.3 µM turned out to be 8%.

`CCc1cc(OC)c(CCNCc2cc(C)cc(Cl)c2)cc1OC` [Compound 2-19, N-(3-chloro-5-methylbenzyl)-2-(4-ethyl-2,5-dimethoxyphenyl)ethan-1-amine] returned an Emax at 0.3 µM of 84%.

`COc1ccc(OC)c(CCNCc2cc(Cl)ccc2C)c1` [Compound 2-12, N-(5-chloro-2-methylbenzyl)-2-(2,5-dimethoxyphenyl)ethan-1-amine] gave an Emax at 0.3 µM of 41%.
